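Interpolation was linear, between the two tested concentrations surrounding the appropriate level; five concentrations were tested over 48 hours in 96-well plates. The concentration for full growth arrest is given as TGI.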
How the values were obtained:
Assay in all cases: NCI tumour cell line growth inhibition, 48 h
DMS 273 small cell lung = test system: DMS 273 small cell lung
UACC-257 melanoma = test system: UACC-257 melanoma
HCC-2998 colon = test system: HCC-2998 colon
RPMI-8226 leukemia = test system: RPMI-8226 leukemia
CAKI-1 renal = test system: CAKI-1 renal
MALME-3M melanoma = test system: MALME-3M melanoma
HOP-92 NSCLC = test system: HOP-92 NSCLC
M14 melanoma = test system: M14 melanoma
IGROV1 ovarian = test system: IGROV1 ovarian
SNB-75 CNS = test system: SNB-75 CNS
KM12 colon = test system: KM12 colon
SR leukemia = test system: SR leukemia
NCI-H23 lung = test system: NCI-H23 lung
OVCAR-3 ovarian = test system: OVCAR-3 ovarian
KM20L2 colon = test system: KM20L2 colon
EKVX NSCLC = test system: EKVX NSCLC
XF 498 CNS = test system: XF 498 CNS
HOP-62 NSCLC = test system: HOP-62 NSCLC
SF-539 CNS = test system: SF-539 CNS
SNB-78 CNS = test system: SNB-78 CNS
786-0 renal = test system: 786-0 renal
A549 NSCLC = test system: A549 NSCLC
SNB-19 CNS = test system: SNB-19 CNS
OVCAR-8 ovarian = test system: OVCAR-8 ovarian
NCI-H226 lung = test system: NCI-H226 lung
U251 CNS = test system: U251 CNS
SK-OV-3 ovarian = test system: SK-OV-3 ovarian
RXF 393 renal = test system: RXF 393 renal
A498 renal = test system: A498 renal
M19-MEL melanoma = test system: M19-MEL melanoma
LXFL 529 NSCLC = test system: LXFL 529 NSCLC
DLD-1 colon = test system: DLD-1 colon
HCT-116 colon = test system: HCT-116 colon
SK-MEL-5 melanoma = test system: SK-MEL-5 melanoma
SK-MEL-28 melanoma = test system: SK-MEL-28 melanoma
ACHN renal = test system: ACHN renal
HL-60(TB) leukemia = test system: HL-60(TB) leukemia
TK-10 renal = test system: TK-10 renal
SF-268 CNS = test system: SF-268 CNS
SW-620 colon = test system: SW-620 colon
HCT-15 colon = test system: HCT-15 colon
NCI-H522 lung = test system: NCI-H522 lung
HT29 colon = test system: HT29 colon
NCI-H460 lung = test system: NCI-H460 lung
UO-31 renal = test system: UO-31 renal
UACC-62 melanoma = test system: UACC-62 melanoma
OVCAR-4 ovarian = test system: OVCAR-4 ovarian
SF-295 CNS = test system: SF-295 CNS
LOX IMVI melanoma = test system: LOX IMVI melanoma
DMS 114 small cell lung = test system: DMS 114 small cell lung
SN12C renal = test system: SN12C renal
OVCAR-5 ovarian = test system: OVCAR-5 ovarian
K-562 leukemia = test system: K-562 leukemia
COLO 205 colon = test system: COLO 205 colon
MOLT-4 leukemia = test system: MOLT-4 leukemia
SK-MEL-2 melanoma = test system: SK-MEL-2 melanoma
CCRF-CEM leukemia = test system: CCRF-CEM leukemia

**Q.** Which results are given for `O=C(CSSCC(=O)Nc1ccc(Br)cc1)Nc1ccc(Br)cc1`?
**A.** TGI (DMS 273 small cell lung): 30.8 µM; TGI (UACC-257 melanoma): 37.6 µM; TGI (HCC-2998 colon): 50.6 µM; TGI (RPMI-8226 leukemia): 64.3 µM; TGI (CAKI-1 renal): 50.3 µM; TGI (MALME-3M melanoma): 43 µM; TGI (HOP-92 NSCLC): 34.1 µM; TGI (M14 melanoma): 32.7 µM; TGI (IGROV1 ovarian): 39 µM; TGI (SNB-75 CNS): 40.1 µM; TGI (KM12 colon): 55.4 µM; TGI (SR leukemia): 37.9 µM; TGI (NCI-H23 lung): 35.2 µM; TGI (OVCAR-3 ovarian): 32.1 µM; TGI (KM20L2 colon): 29.2 µM; TGI (EKVX NSCLC): 48.9 µM; TGI (XF 498 CNS): 34.5 µM; TGI (HOP-62 NSCLC): 25.9 µM; TGI (SF-539 CNS): 31.6 µM; TGI (SNB-78 CNS): 32.5 µM; TGI (786-0 renal): 31.4 µM; TGI (A549 NSCLC): 35.8 µM; TGI (SNB-19 CNS): 29.4 µM; TGI (OVCAR-8 ovarian): 31.6 µM; TGI (NCI-H226 lung): 31.7 µM; TGI (U251 CNS): 27.6 µM; TGI (SK-OV-3 ovarian): 40 µM; TGI (RXF 393 renal): 33.2 µM; TGI (A498 renal): 34.1 µM; TGI (M19-MEL melanoma): 34.2 µM; TGI (LXFL 529 NSCLC): 31.2 µM; TGI (DLD-1 colon): 35.9 µM; TGI (HCT-116 colon): 28.1 µM; TGI (SK-MEL-5 melanoma): 45.8 µM; TGI (SK-MEL-28 melanoma): 32.4 µM; TGI (ACHN renal): 30 µM; TGI (HL-60(TB) leukemia): 48.5 µM; TGI (TK-10 renal): 30.5 µM; TGI (SF-268 CNS): 26.6 µM; TGI (SW-620 colon): 29.4 µM; TGI (HCT-15 colon): 46.6 µM; TGI (NCI-H522 lung): 24.8 µM; TGI (HT29 colon): 47.6 µM; TGI (NCI-H460 lung): 37.7 µM; TGI (UO-31 renal): 31.8 µM; TGI (UACC-62 melanoma): 29.3 µM; TGI (OVCAR-4 ovarian): 35.4 µM; TGI (SF-295 CNS): 28 µM; TGI (LOX IMVI melanoma): 26.3 µM; TGI (DMS 114 small cell lung): 28.2 µM; TGI (SN12C renal): 30.2 µM; TGI (OVCAR-5 ovarian): 41.7 µM; TGI (K-562 leukemia): > 100 µM; TGI (COLO 205 colon): 74 µM; TGI (MOLT-4 leukemia): 67 µM

**Q.** What does the source list for `COc1cc(O)c2c(c1)C(=O)C1=C(C2=O)C(O)C[C@@](C)(O)C1` (stereo not given in full)?
**A.** TGI (DMS 273 small cell lung): 5.04 µM; TGI (UACC-257 melanoma): 1.24 µM; TGI (HCC-2998 colon): 2.91 µM; TGI (RPMI-8226 leukemia): 6.52 µM; TGI (CAKI-1 renal): 14 µM; TGI (MALME-3M melanoma): 2.11 µM; TGI (HOP-92 NSCLC): 3.57 µM; TGI (M14 melanoma): 2.02 µM; TGI (IGROV1 ovarian): 3.71 µM; TGI (KM12 colon): 8.91 µM; TGI (SR leukemia): 6.14 µM; TGI (NCI-H23 lung): 3.3 µM; TGI (OVCAR-3 ovarian): 5.67 µM; TGI (KM20L2 colon): 11.6 µM; TGI (EKVX NSCLC): 13.1 µM; TGI (XF 498 CNS): 3.46 µM; TGI (HOP-62 NSCLC): 21.2 µM; TGI (SF-539 CNS): 5.74 µM; TGI (SNB-78 CNS): 4.67 µM; TGI (786-0 renal): 9.25 µM; TGI (A549 NSCLC): 11.5 µM; TGI (SNB-19 CNS): 14.1 µM; TGI (OVCAR-8 ovarian): 6.15 µM; TGI (NCI-H226 lung): 13.2 µM; TGI (U251 CNS): 6.34 µM; TGI (SK-OV-3 ovarian): 17.1 µM; TGI (RXF 393 renal): 3.05 µM; TGI (A498 renal): 3.29 µM; TGI (M19-MEL melanoma): 1.66 µM; TGI (LXFL 529 NSCLC): 2.1 µM; TGI (DLD-1 colon): 2.28 µM; TGI (SK-MEL-2 melanoma): 5.05 µM; TGI (HCT-116 colon): 2.22 µM; TGI (SK-MEL-28 melanoma): 3.15 µM; TGI (ACHN renal): 4.46 µM; TGI (HL-60(TB) leukemia): 1.5 µM; TGI (TK-10 renal): 6.14 µM; TGI (SF-268 CNS): 4.47 µM; TGI (SW-620 colon): 2.53 µM; TGI (HCT-15 colon): 3.61 µM; TGI (NCI-H522 lung): 2.47 µM; TGI (HT29 colon): 2.39 µM; TGI (NCI-H460 lung): 4.96 µM; TGI (UO-31 renal): 6.6 µM; TGI (UACC-62 melanoma): 3.1 µM; TGI (OVCAR-4 ovarian): 3.01 µM; TGI (SF-295 CNS): 7.32 µM; TGI (LOX IMVI melanoma): 1.68 µM; TGI (DMS 114 small cell lung): 3.26 µM; TGI (SN12C renal): 2.65 µM; TGI (OVCAR-5 ovarian): 22.2 µM; TGI (K-562 leukemia): 2.46 µM; TGI (COLO 205 colon): 0.844 µM; TGI (CCRF-CEM leukemia): > 24.9 µM; TGI (MOLT-4 leukemia): 7.63 µM

— PubChem BioAssay (NCI)
